In patent US20250084078A1, “FUSED RING-SUBSTITUTED SIX-MEMBERED HETEROCYCLIC COMPOUND, AND PREPARATION METHOD THEREFOR AND USE THEREOF” (GENFLEFT THERAPEUTICS (SHANGHAI) INC., priority 2022, published 2025) one finds IC50 data, which are given here for twelve compounds.

Structures are written as SMILES.

HPK1, sequence (Q92918 whole entry): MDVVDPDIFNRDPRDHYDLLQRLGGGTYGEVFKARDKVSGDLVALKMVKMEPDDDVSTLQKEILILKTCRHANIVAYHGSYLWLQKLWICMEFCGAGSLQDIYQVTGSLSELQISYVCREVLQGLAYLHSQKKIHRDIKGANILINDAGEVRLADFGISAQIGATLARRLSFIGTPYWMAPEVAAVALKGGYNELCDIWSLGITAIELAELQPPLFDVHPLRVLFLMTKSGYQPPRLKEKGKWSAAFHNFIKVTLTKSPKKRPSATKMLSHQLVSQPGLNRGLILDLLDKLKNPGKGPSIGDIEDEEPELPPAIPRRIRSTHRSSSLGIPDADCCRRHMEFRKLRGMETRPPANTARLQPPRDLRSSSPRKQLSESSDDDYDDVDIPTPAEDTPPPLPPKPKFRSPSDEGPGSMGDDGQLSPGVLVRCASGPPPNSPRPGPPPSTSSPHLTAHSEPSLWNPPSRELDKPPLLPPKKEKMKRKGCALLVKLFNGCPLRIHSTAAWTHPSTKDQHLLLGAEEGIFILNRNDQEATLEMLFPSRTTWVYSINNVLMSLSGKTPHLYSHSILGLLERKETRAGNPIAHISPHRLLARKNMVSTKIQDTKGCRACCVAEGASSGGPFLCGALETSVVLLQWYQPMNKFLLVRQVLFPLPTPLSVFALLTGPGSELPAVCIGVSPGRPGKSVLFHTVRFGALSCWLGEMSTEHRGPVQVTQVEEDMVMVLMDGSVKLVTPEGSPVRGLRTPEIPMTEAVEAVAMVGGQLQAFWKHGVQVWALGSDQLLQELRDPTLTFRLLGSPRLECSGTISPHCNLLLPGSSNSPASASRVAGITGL

This test has as its target HPK1 (Homo sapiens, UniProt Q92918). In words: SLP76 phosphorylation assay (intracellular HPK1 inhibitory activity, p-SLP76 S376 ELISA in Jurkat cells). The settings on record: p-SLP76 IC50, Jurkat, Clone E6-1 cells; 1 h compound pre-incubation; anti-CD3 beads stimulation 20 min; Phospho-SLP-76 (Ser376) ELISA.
With `CCc1c[nH]c2ncc(-c3cc4c(c([C@@H]5COCCN5)c3)CN(C(=O)c3cnc(C)nc3)CC4)nc12` [Compound Z533, (R)-(6-(7-ethyl-5H-pyrrolo[2,3-b]pyrazin-2-yl)-8-(morpholin-3-yl)-3,4-dihydroisoquinolin-2(1H)-yl)(2-methylpyrimidin-5-yl)methanone], the IC50 is 229 nM.
In the case of `Cc1c[nH]c2ncc(-c3cc4c(c([C@@H]5COCCN5)c3)CN(C(=O)c3cnn(C5CC5)c3)CC4)cc12` [Compound Z456] it was 315 nM; in that of `Cc1c[nH]c2ncc(-c3cc4c(c([C@@H]5COCCN5)c3)CN(C(=O)[C@H]3CCOC3)CC4)nc12` [Compound Z630, (6-(7-methyl-5H-pyrrolo[2,3-b]pyrazin-2-yl)-8-((R)-morpholin-3-yl)-3,4-dihydroisoquinolin-2(1H)-yl)((S)-tetrahydrofuran-3-yl)methanone], 247 nM; in that of `Cc1c[nH]c2ncc(-c3cc4c(c([C@@H]5COCCN5)c3)CN(C(=O)N3CCOCC3(C)C)CC4)cc12` [Compound Z479, (R)-(3,3-dimethylmorpholine)(6-(3-methyl-1H-pyrrolo[2,3-b]pyridin-5-yl)-8-(morpholin-3-yl)-3,4-dihydroisoquinolin-2(1H)-yl)methanone], 147 nM.
Compound `Cc1c[nH]c2ncc(-c3cc4c(c([C@@H]5COCCN5)c3)CN(C(=O)N3C[C@H]5CC[C@@H]3CO5)CC4)cc12` (single isomer, unassigned) [Compound Z643] yielded an IC50 of 294 nM.
The same measure for `Cc1ncc(C(=O)N2CCc3cc(-c4cnc5[nH]cc(Cl)c5c4)cc([C@@H]4COCCN4)c3C2)cn1` [Compound Z532, (R)-(6-(3-50 chloro-1H-pyrrolo[2,3-b]pyridin-5-yl)-8-(morpholin-3-yl)-3,4-dihydroisoquinolin-2(1H)-yl)(2-methylpyrimidin-5-yl)methanone]: 394 nM.
The compound `O=C(N1CCOCC1)N1CCc2cc(-c3cnc4[nH]cc(Cl)c4c3)cc([C@@H]3COCCN3)c2C1` [Compound Z483, (R)-(6-(3-chloro-1H-pyrrolo[2,3-b]pyridin-5-yl)-8-(morpholin-3-yl)-3,4-dihydroisoquinolin-2(1H)-yl)(morpholine)methanone] displayed an IC50 of 112 nM.
As for `Cc1c[nH]c2ncc(-c3cc4c(c([C@@H]5COCCN5)c3)CN(C(=O)N3CCC(O)C3)CC4)cc12` (stereo partly drawn) [Compound Z558, (3-hydroxypyrrolidin-1-yl)(6-(3-methyl-1H-pyrrolo[2,3-b]pyridin-5-yl)-8-((R)-morpholin-3-yl)-3,4-dihydroisoquinolin-2(1H)-yl)methanone], the IC50 was 936 nM.
The same measure for `Cc1c[nH]c2ncc(-c3cc4c(c([C@@H]5COCCN5)c3)CN(C(=O)c3cnn(C(C)C)c3)CC4)cc12` [Compound Z477]: 422 nM.
The compound `Cc1ncc(C(=O)N2CCc3cc(-c4cnc5[nH]cc(C)c5c4)cc([C@@H]4COCCN4)c3C2)cn1` [Compound Z468, (R)-(2-methylpyrimidin-5-yl)-[6-(3-methyl-1H-pyrrolo[2,3-b]pyridin-5-yl)-8-[morpholin-3-yl]-3,4-dihydroisoquinolin-2(1H)-yl]methanone] gave an IC50 of 340 nM.
In the case of `CCc1c[nH]c2ncc(-c3cc4c(c([C@@H]5COCCN5)c3)CN(C(=O)c3cnc(C)nc3)CC4)cc12` [Compound Z567, (R)-(6-(3-ethyl-1H-pyrrolo[2,3-b]pyridin-5-yl)-8-(morpholin-3-yl)-3,4-dihydroisoquinolin-2(1H)-yl)(2-methylpyrimidin-5-yl)methanone] it was 125 nM; in that of `CC(C)(O)C(=O)N1CCc2cc(-c3cnc4[nH]cc(Cl)c4n3)cc([C@@H]3COCCN3)c2C1` [Compound Z465, (R)-3-(6-(7-chloro-5H-pyrrolo[2,3-b]pyrazin-2-yl)-2-(2-hydroxy-2-methylpropanoyl)-1,2,3,4-tetrahydroisoquinolin-8-yl)morpholine], 144 nM.
